Laboratory results published in US20230181905A1, “Systems, Devices, and Methods for Enhancing the Neuroprotective Effects of Non-Invasive Gamma Stimulation with Pharmacological Agents” (Massachusetts Institute of Technology, priority 2021, published 2023).

How the values were obtained:
[1] = tested on: myelin basic protein (MBP); test: MBP levels and myelination of PV axons; format: in vivo, mouse; details: 5×FAD mice
Excerpt: It was next sought to understand whether Plx3397 administration-dependent electrophysiological alterations were attributed to changes in amyloid plaque levels. […] In the cuprizone model of demyelination, Plx33977 administration preserved myelin. It was thus considered whether electrophysiological alterations are associated with myelin levels in Plx3397 treated 5×FAD mice.
These observations point to synaptic connectivity, PNN extracellular architecture, and myelination as biological processes that GENUS impacts to improve the outcomes in Plx3397 administered 5×FAD mice. To further validate this, additional biochemical analyses were performed. […] Next, it was observed that Plx3397 (130.4±7.178), GENUS (116.2±5.225) and Plx3397+GENUS (119.0±6.325) all increased the WFA signals with the highest levels in Plx3397 alone group compared to controls (100±4.655) (FIGS. 25D, 25F). […] Synaptic input arriving within the PNN of parvalbumin (PV) interneurons and the PNN architecture are shown to modulate the activity of PV interneurons robustly. […] Next, although the total MBP levels was not affected (100±19.58, 132.4±30.10, 140.2±25.31, & 133.4±22.13 in control, Plx3397, GENUS, Plx3397+Genus groups, respectively), GENUS increased myelin ensheathment of axons of PV interneurons in Plx3397 administered 5×AFAD mice (20.75±1.45, 25.44±2.83, 37.91±4.56, & 31.3±3.21) (FIGS. 25D, 25H, 25I and FIG. 30C). Collectively, these findings show improved synaptic connectivity and axonal myelination of PV interneurons after repeated GENUS in Plx3397 administered 5×FAD mice.

[2] = tested on: LFP oscillations in the visual cortex; test: In vivo electrophysiology: LFP power and 40 Hz entrainment in visual cortex; set-up: species or system mouse
Description: Next, it was aimed to understand how these treatments impacted the LFP oscillations and neuronal action potentials. First, in vivo awake animal electrophysiology was performed using high-density linear probes and verified whether 5×FAD mice with reduced microglia by Plx3397 treatment can entrain 40 Hz sensory stimulation. […] At the group level gamma stimulation increased gamma but not theta power as expected based on previous findings (2 W ANOVA, groups x frequency, F (1,6)=32.03, P=0.0013) (FIGS. 15A, 15B).
Mice were anaesthetized with isoflurane, restrained in a stereotactic apparatus and craniotomies were made exposing the visual cortex (AP: −3.2 & ML: +2.5). […] The reference electrode was targeted to the white matter tract above the hippocampus. Mice were allowed to recover for a period of 4 days.
Following a 2-3-day habitation period for the recording, recordings commenced with the animal allowed to move freely in their home cages. Data were acquired using Neuralynx SX system (Neuralynx, Bozeman, Mont., USA) and signals were sampled at 32,000 Hz. The position of animals was tracked using red light-emitting diodes affixed to the probes. At the conclusion of the experiment, mice underwent terminal anesthesia and electrode positions were marked by electrolytic lesioning of brain tissue with […] current for 10 s through each electrode individually, to confirm their anatomical location.
LFPs were first filtered to the Nyquist frequency of the target sampling rate then downsampled to 1000 Hz. Power spectral analyses were performed using the pwelch function in MATLAB using a 500 ms time window with a 50% overlap.
Mice were anaesthetized with isoflurane, restrained in a stereotactic apparatus and craniotomies were made exposing the visual cortex. Specifically, a 2×2 mm piece of skull was removed using a dental drill, which was above the V1 (stereotaxic 826 coordinates relative to bregma; AP −3.2; ML+2.5); during this entire procedure, the dura was kept intact and moist with saline. Following the skull removal from above both the right V1, two additional drilling holes above the frontal cortex were made and two skull screws were placed. […] The probe was grounded to skull screw above the cerebellum. Petroleum jelly (Vaseline, 100% white petrolatum) was gently applied on the cranial window without touching the probe/electrodes, which protected both the brain and probe/electrode. Next, the probe was further lowered and/or adjusted to reach the target depth. Finally, the probe was cemented on the skull with dental cements, first with a metabond (Parkell, C&B Metabond Quick Adhesive Cement System, #836 SKU:S380) followed by a dental cement from Steolting (#51459). Mice were allowed to recover for a period of 4 days.
Data analyses: LFPs were first filtered to the Nyquist frequency of the target sampling rate then down-sampled to 1000 Hz. Power spectral analyses were performed using the pwelch function in MATLAB using a 500 ms time window with a 50% overlap.
Time-frequency representation of LFP: The LFP data were down sampled to 1,000 Hz. For the calculation of the wavelet power spectrum, the continuous wavelet transforms (CWT) was applied to the LFP using complex Morlet wavelets returning amplitudes at 226 intervals between 1-100 Hz. CWT based wavelet power spectrum was shown in FIG. 21A, FIG. 26C, and FIG. 27C. For visualizing 40 Hz entrainment at finer frequency resolution, multitaper spectral analysis using Chronux toolbox was used.

perineuronal nets (WFA) = test: WFA staining of perineuronal nets; format: in vivo, mouse; details: 5×FAD mice
Excerpt: Perineuronal nets (PNN) of neurons are necessary for neuronal integrity and circuit plasticity. Loss of PNN is shown to occur in AD. […] Therefore, the effect of the treatment on PNN was examined.
Antibodies: IBA1 (Synaptic Systems, Cat #234 004, dilution-1:500; Wako Chemicals, Cat #019-19741, dilution-1:500), GFAP (Thermo Fisher Scientific, Cat #130300, dilution-1:500), MEF2C (Cell Signaling Technology, Cat #5030T), MAC2 (Cedarlane Labs, Cat #CL8942AP, dilution-1:500), vGAT (Synaptic Systems, Cat #131 013, dilution-1:500), vGLUT (Synaptic Systems, Cat #1135 302, dilution-1:500), NeuN (Synaptic Systems, Cat #266 004, dilution-1:1000), MHC2 (EMD Millipore, Cat #MABF33, dilution-1:500), C1q (Abcam, Cat #ab182451, dilution-1:500), synaptophysin (Sigma, Cat #S5768). The following combination of secondary antibodies were used: (1) Alexa Fluor 488, 594 and 647, (2) Alexa Fluor 555 and 647, (3) Alexa Fluor 594 and 647, or (4) Alexa Fluor 488 and 647. All secondary antibodies were obtained from Invitrogen. Biotinylated Wisteria Floribunda Lectin (Vector Laboratories, Cat #B-1355, dilution-1:500) followed by streptavidin conjugated Alexa Fluor 594 (Thermo Fisher Scientific, Cat #S32356, dilution-1:1000) was used to examine WFA.

[3] = hippocampus, chronic Plx3397 vs control

Q: How did the MBP levels [1, 3] turn out when `FC(F)(F)c1ccc(CNc2ccc(Cc3c[nH]c4ncc(Cl)cc34)cn2)cn1` [Plx3397, Pexidartinib] was run?
A: Its MBP levels is “did not affect”.

Q: What about the “overall MBP signals” value ([1]; visual cortex, Plx3397 50 days, not significantly affected) of the same compound?
A: The value was 953800000±1277515477 au.

Q: And the “total MBP levels” value ([1]; western blot, control 100±19.58, not affected)?
A: Its value is 132.4±30.10.

Q: What about the “myelin ensheathment of axons of PV interneurons” value ([1]; control 20.75±1.45) of the same compound?
A: The value was 25.44±2.83.

Q: And the “entrainment of 40 Hz sensory stimulation” value ([2]; 5×FAD mice with microglia reduced by Plx3397, awake recording)?
A: Its value is “can indeed entrain 40 Hz”.

Q: And the LFP spectral power ([2]; 5×FAD mice, Plx3397 diet 50 days vs control)?
A: Its LFP spectral power is “no significant difference”.

Q: What about the “time-resolved LFP gamma and theta power” value ([2]; 5×FAD mice, chronic Plx3397 administration) of the same compound?
A: The value was “elevated power of gamma and theta that occur incongruently”.

Q: What about the gamma response latency ([2]; 5×FAD mice, untreated vs Plx3397 treated) of the same compound?
A: The gamma response latency was “comparable”.

Q: What about the “power of 40 Hz entrainment compared to control 5×FAD mice” value ([2]; Plx3397 administered 5×FAD mice, acute 40 Hz stimulation) of the same compound?
A: The value was “higher”.

Q: What about the aberrant theta-bursts ([2]; Plx3397 treated 5×FAD mice during acute 40 Hz visual stimulation) of the same compound?
A: Its aberrant theta-bursts is “reduced”.

Q: And the “WFA content within the microglia compared to control mice” value (perineuronal nets (WFA))?
A: Its value is “higher”.

Q: And the WFA signals (perineuronal nets (WFA); [3])?
A: The WFA signals was “increased”.

Q: And the PNN coverage (perineuronal nets (WFA); visual cortex)?
A: The PNN coverage was “increased”.

Q: What about the “WFA overall signal intensity” value (perineuronal nets (WFA); visual cortex) of the same compound?
A: The value was “increased”.

Q: And the WFA signals (perineuronal nets (WFA); visual cortex)?
A: The WFA signals was 130.4±7.178 % of no treatment control.

Q: And the “WFA+ PNN signals” value (perineuronal nets (WFA); visual cortex, Plx3397 50 days)?
A: The value was 289400000±9384029 au.
